Data taken from ChEMBL document CHEMBL1201862, “PubChem BioAssay data set” (2004).
Activity calls are given as the source filed them.

Key:
[1] = target: E3 ubiquitin-protein ligase XIAP (Homo sapiens, UniProt P98170); experiment: Counter Screen using XIAP-Bir3 for Chemical Antagonists of Bir1/2 domains of IAP-family anti-apoptotic proteins. [Related pubchem assays (depositor defined):AID1018, AID1449, AID1514, AID1638, AID1749, AID1750, AID488957, AID488963]
[2] = fluorescence interference artefacts, compound only, dose response, artefact control for cardiac thin filament activator project, biochemical, no RTF in test wells (AID 504697)
[3] = target: Troponin, cardiac muscle (Homo sapiens, UniProt P19429+P45379+P63316); experiment: Fluorescence-based biochemical high throughput dose response assay for activators of the calcium sensitivity of cardiac Regulated Thin Filaments (RTF). [Related pubchem assays (depositor defined):AID493008, AID493018, AID504382, AID504383]; assay type: protein-complex assay
[4] = target: T1, Long-chain-fatty-acid--AMP ligase FadD28 (Mycobacterium tuberculosis, UniProt P9WQ59); experiment: Fluorescence polarization aasay to screen for inhibitors that compete for the binding of FadD28 to a bisubstrate Measured in Biochemical System Using Plate Reader - 2147-01_Inhibitor_Dose_CherryPick_Activity.; assay type: functional, Mycobacterium tuberculosis H37Rv
T1 sequence (P9WQ59 whole entry): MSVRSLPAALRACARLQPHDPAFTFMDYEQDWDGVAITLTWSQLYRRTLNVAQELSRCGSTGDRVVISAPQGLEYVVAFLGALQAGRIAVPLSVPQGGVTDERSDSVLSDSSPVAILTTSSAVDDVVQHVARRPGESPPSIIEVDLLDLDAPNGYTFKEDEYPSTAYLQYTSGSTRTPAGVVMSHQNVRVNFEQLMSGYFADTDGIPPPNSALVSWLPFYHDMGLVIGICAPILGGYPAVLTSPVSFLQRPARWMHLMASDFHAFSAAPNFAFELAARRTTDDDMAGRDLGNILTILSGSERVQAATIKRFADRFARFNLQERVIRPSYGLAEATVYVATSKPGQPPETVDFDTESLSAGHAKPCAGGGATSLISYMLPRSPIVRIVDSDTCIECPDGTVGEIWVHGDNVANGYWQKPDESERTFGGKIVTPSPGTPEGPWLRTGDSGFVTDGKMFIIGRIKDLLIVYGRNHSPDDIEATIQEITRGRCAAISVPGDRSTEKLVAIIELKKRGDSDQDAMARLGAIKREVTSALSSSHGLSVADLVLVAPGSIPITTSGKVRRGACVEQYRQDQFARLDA

[5] = target: T2, G-protein coupled receptor 35 (Homo sapiens, UniProt Q9HC97); experiment: SAR analysis of Agonists of the GPR35 Receptor using an Image-Based Assay - Set 4. [Related pubchem assays (depositor defined):AID2013, AID2026]; assay type: functional
[6] = target: T3, Cannabinoid receptor 1 (Homo sapiens, UniProt P21554); experiment: SAR analysis of agonists of the Cannabinoid Receptor 1 using an Image-Based Assay - Set 4. [Related pubchem assays (depositor defined):AID2013, AID2026]; assay type: functional
[7] = target: T2, G-protein coupled receptor 35; experiment: SAR analysis of Antagonists of the GPR35 Receptor using an Image-Based Assay - Set 6. [Related pubchem assays (depositor defined):AID2013, AID2026]; assay type: functional
[8] = target: T3, Cannabinoid receptor 1; experiment: SAR analysis of antagonists of the Cannabinoid Receptor 1 using an Image-Based Assay - Set 4. [Related pubchem assays (depositor defined):AID2013, AID2026]; assay type: functional
[9] = target: G-protein coupled receptor 55 (Homo sapiens, UniProt Q9Y2T6); experiment: SAR Analysis of Selective Antagonists of GPR55 using an Image-Based Assay - Set 4. [Related pubchem assays (depositor defined):AID2013, AID2026]; assay type: functional;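 note: antagonism of response to 5 µM lysophosphatidylinositol agonist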
[10] = target: T4, Cannabinoid receptor 2 (Homo sapiens, UniProt P34972); experiment: SAR analysis of antagonists of the Cannabinoid Receptor 2 using an Image-Based Assay - Set 3. [Related pubchem assays (depositor defined):AID2013, AID2026]; assay type: functional
[11] = target: T4, Cannabinoid receptor 2; experiment: SAR analysis of agonists of the Cannabinoid Receptor 2 using an Image-Based Assay - Set 3. [Related pubchem assays (depositor defined):AID2013, AID2026]; assay type: functional
[12] = target: Tyrosine-protein phosphatase non-receptor type 12 (Homo sapiens, UniProt Q05209); experiment: SAR Selectivity Analysis of small molecule inhibitors of PEST using pCAP in a fluorescence assay. [Related pubchem assays (depositor defined):AID1779, AID1784, AID2135]; assay type: functional
[13] = target: T5, Tyrosine-protein phosphatase non-receptor type 22 (Homo sapiens, UniProt Q9Y2R2); experiment: SAR LYP1 Fluorescent Assay using OMFP substrate for In Vitro dose response studies - Set 3. [Related pubchem assays (depositor defined):AID1779, AID1784, AID2140, AID2686]; assay type: functional
T5 sequence (Q9Y2R2 whole entry): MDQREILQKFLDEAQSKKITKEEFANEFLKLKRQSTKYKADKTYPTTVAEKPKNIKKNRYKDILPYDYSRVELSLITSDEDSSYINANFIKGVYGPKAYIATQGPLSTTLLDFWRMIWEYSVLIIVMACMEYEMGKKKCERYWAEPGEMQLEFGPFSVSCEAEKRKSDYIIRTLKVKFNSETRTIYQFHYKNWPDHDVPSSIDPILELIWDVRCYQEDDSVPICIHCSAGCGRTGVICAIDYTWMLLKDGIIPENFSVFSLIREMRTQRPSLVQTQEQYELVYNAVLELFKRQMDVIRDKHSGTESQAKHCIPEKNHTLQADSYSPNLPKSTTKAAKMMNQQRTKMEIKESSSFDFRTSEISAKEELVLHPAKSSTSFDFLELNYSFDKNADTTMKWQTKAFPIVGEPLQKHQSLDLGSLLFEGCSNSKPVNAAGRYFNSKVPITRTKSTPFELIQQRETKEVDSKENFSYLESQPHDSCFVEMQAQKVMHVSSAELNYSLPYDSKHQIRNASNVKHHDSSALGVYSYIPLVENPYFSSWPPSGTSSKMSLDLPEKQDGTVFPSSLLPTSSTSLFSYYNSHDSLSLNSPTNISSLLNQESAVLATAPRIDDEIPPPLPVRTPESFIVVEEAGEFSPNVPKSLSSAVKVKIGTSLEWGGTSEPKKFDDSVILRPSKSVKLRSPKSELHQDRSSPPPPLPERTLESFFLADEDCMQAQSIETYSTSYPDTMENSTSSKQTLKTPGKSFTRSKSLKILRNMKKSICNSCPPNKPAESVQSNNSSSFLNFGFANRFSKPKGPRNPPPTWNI

[14] = target: T6, Tyrosine-protein phosphatase non-receptor type 7 (Homo sapiens, UniProt P35236); experiment: redox-dependent HePTP inhibition, mechanism study, biochemical, fluorescence (AID 2068); assay type: functional
T6 sequence (P35236 whole entry): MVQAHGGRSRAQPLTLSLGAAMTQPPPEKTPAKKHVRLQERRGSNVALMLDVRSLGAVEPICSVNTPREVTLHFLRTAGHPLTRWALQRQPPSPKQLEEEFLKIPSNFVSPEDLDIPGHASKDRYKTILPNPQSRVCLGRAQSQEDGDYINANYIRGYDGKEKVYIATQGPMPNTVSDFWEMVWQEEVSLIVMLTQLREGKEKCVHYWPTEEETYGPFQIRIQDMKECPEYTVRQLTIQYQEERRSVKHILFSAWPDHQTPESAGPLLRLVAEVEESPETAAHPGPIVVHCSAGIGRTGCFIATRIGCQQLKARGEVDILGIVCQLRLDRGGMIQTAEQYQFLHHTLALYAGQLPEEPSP

[15] = target: T6, Tyrosine-protein phosphatase non-receptor type 7; experiment: HePTP (PTPN7) phosphatase inhibitor potency, SAR follow-up, biochemical, set 2 (AID 449736); assay type: functional
[16] = target: T5, Tyrosine-protein phosphatase non-receptor type 22; experiment: LYP (PTPN22) phosphatase inhibitor potency, SAR follow-up, biochemical, pCAP fluorogenic substrate, fluorescence, set 3 (AID 449727); assay type: functional
[17] = target: Dual specificity protein phosphatase 3 (Homo sapiens, UniProt P51452); experiment: SAR VHR1 Fluorescent Assay for In Vitro dose response studies Set 2. [Related pubchem assays (depositor defined):AID1654, AID1661, AID1878]; assay type: functional
[18] = target: T7, Dual specificity protein phosphatase 6 (Rattus norvegicus, UniProt Q64346); assay type: functional;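 note: confirmatory in vitro dose-response testing of MKP-3 inhibition; recombinant His-tagged MKP-3 made in E. coli BL21 with OMFP substrate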
T7 sequence (Q64346 whole entry): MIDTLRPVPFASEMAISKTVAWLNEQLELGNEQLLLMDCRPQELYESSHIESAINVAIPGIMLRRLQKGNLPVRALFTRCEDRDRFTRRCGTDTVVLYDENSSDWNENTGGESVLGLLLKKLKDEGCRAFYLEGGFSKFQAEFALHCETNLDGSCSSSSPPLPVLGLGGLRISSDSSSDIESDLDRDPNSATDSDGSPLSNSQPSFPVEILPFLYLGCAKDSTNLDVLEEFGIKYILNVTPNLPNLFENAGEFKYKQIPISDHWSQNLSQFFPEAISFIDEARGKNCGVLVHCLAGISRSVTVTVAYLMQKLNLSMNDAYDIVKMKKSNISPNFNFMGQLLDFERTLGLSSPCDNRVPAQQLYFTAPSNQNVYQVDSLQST

T3 sequence (P21554 whole entry): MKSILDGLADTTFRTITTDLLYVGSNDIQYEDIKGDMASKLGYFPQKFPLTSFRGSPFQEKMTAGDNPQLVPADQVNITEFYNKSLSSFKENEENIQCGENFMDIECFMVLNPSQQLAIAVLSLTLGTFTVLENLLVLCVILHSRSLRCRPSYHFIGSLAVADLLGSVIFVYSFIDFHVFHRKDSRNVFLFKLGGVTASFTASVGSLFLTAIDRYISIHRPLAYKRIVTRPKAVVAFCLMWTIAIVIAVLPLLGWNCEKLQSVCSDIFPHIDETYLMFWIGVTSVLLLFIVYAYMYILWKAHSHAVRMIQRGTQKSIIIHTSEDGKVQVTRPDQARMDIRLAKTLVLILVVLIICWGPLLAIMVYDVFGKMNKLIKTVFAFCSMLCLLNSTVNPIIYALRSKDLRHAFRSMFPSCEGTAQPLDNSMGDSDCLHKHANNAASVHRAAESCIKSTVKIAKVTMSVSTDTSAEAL
T4 sequence (P34972 whole entry): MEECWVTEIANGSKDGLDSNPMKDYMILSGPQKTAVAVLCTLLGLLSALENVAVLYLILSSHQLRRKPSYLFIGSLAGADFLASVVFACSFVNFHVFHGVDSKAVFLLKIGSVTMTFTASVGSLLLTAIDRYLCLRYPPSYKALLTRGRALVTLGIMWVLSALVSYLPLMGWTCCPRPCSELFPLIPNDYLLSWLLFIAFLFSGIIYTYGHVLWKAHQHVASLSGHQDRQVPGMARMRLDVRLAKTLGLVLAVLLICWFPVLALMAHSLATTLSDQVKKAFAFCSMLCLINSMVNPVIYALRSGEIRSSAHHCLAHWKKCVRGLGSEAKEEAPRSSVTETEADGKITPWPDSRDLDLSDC
T2 sequence (Q9HC97 whole entry): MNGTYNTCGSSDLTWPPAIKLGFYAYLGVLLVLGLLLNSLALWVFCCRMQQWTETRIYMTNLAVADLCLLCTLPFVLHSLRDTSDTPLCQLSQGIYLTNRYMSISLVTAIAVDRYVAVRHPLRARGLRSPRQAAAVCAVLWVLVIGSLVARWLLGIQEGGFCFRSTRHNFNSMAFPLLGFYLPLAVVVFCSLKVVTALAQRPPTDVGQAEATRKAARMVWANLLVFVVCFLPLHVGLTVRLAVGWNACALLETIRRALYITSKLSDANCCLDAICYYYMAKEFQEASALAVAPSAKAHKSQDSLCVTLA
Chain of E3 ubiquitin-protein ligase XIAP (P98170 whole entry): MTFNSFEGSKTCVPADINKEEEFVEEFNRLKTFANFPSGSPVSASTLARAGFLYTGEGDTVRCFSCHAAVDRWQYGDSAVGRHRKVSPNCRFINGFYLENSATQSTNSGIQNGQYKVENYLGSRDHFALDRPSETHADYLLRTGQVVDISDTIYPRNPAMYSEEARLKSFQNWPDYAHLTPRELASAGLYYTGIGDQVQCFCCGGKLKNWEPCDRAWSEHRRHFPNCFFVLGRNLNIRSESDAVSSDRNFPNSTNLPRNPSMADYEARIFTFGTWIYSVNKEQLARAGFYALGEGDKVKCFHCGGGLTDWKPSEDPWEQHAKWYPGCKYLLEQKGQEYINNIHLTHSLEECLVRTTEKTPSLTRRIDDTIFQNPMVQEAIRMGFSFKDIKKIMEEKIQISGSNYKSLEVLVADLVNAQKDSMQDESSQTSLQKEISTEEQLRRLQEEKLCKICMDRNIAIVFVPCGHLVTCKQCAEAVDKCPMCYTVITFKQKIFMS
Chain of G-protein coupled receptor 55 (Q9Y2T6 whole entry): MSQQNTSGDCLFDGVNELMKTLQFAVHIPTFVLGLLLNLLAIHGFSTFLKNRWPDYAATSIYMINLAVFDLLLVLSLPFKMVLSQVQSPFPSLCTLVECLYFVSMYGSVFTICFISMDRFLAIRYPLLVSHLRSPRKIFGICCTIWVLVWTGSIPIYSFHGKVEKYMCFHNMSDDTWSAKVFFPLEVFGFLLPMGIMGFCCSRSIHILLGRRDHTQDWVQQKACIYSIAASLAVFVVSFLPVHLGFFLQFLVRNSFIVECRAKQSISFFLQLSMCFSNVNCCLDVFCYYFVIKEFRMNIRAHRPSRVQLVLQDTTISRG
Chain of Dual specificity protein phosphatase 3 (P51452 whole entry): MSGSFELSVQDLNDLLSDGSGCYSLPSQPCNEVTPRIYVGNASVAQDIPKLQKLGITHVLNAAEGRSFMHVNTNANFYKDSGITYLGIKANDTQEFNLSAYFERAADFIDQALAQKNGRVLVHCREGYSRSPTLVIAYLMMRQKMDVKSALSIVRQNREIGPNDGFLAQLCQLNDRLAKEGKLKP
Chain of Tyrosine-protein phosphatase non-receptor type 12 (Q05209 whole entry): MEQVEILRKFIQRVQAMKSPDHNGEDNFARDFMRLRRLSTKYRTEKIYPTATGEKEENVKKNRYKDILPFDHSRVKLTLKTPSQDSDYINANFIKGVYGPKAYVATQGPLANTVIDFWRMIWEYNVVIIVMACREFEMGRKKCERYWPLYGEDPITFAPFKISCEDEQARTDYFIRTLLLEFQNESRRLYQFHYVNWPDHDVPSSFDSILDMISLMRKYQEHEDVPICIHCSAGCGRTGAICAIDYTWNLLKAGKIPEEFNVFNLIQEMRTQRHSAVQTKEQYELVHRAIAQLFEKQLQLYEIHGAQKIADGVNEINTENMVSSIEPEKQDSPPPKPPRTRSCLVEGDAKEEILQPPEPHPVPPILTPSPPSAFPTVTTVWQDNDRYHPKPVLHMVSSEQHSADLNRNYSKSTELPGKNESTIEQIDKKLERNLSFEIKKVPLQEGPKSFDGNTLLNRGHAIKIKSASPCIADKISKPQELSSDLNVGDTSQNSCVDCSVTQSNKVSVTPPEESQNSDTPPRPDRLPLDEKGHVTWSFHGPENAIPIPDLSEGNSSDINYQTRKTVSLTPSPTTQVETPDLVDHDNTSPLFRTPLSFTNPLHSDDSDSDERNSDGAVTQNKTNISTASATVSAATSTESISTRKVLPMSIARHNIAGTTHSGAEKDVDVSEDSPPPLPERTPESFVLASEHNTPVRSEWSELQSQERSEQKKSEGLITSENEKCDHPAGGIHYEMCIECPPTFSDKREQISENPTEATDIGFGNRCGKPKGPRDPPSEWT

CCN1C(=O)C(=CNc2ccc(N3CCOCC3)cc2)C(=O)N(CC)C1=S
IC50 [1]: > 20 µM (inactive)
EC50 [2]: > 7.94 µM (active)
EC50 [3]: 5.15 µM (active)
AC50 [4]: > 100 µM (inactive)

COc1ccc(-c2nnc(C)c3nn(-c4ccc(C)cc4)cc23)cc1
EC50 [5]: > 32 µM (inactive)
EC50 [6]: > 32 µM (inactive)
IC50 [7]: > 32 µM (inactive)
IC50 [8]: 3.56 µM (active)
IC50 [9]: > 32 µM (inactive)
IC50 [10]: > 15.6 µM (inactive)
EC50 [11]: > 32 µM (inactive)

CCOc1cc(/C=C2\SC(=O)N(CC(=O)Nc3ccc(C)cc3)C2=O)cc(Cl)c1OCC(=O)OC
IC50 [12]: > 100 µM (inactive)
IC50 [13]: > 100 µM (inactive)
IC50 [14]: 17.9 µM (active)
IC50 [15]: 9.66 µM (active)
IC50 [16]: > 100 µM (inactive)
IC50 [17]: > 100 µM (inactive)
IC50 [18]: > 100 µM (inactive)
